# Columns and labels:
# [1] = system: CDK2; conditions: cited from earlier work
# [2] = system: CDK1; conditions: cited from earlier work
# [3] = target: MST3 (Homo sapiens, UniProt Q9Y6E0); assay: 33P-radiolabeled kinase assay; format: biochemical
# Chain of MST3 (Q9Y6E0 1-431 isoform Q9Y6E0-2): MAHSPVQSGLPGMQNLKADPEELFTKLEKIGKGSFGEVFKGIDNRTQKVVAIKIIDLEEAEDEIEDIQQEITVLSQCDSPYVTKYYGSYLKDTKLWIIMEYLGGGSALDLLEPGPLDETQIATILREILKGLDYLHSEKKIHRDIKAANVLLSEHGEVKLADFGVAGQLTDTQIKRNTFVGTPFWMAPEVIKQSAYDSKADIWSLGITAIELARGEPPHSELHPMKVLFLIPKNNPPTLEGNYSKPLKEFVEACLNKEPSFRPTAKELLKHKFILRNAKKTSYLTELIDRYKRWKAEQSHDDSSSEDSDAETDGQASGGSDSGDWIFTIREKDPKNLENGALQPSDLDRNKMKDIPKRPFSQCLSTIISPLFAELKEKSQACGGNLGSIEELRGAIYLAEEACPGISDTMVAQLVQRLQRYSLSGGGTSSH
compound,measurement,setting,value
CDK1/2 inhibitor III,activity against CDK2,[1],sub-nanomolar
same,activity against CDK1,[2],sub-nanomolar
CCN(CC)CCNC(=O)c1c(C)[nH]c(/C=C2\C(=O)Nc3ccc(F)cc32)c1C [sunitinib],fold difference in MST3 inhibitory activity,[3]; less active than the related compound(s) of the same scaffold,20 fold
COCCOc1ccc2c(c1)ncn2-c1ccc2cccc(N3CCC(N)CC3)c2n1 [CP-673451],IC50,[3],260 nM
COc1cc(Nc2c(C#N)cnc3cc(OCCCN4CCN(C)CC4)c(OC)cc23)c(Cl)cc1Cl [bosutinib],IC50,[3],3 nM

# From article PMC7771544 (ChemMedChem, 2016)
